{
  "source": "patent US7232837B2",
  "about": "“Stereoisomers with high affinity for adrenergic receptors” (McNeil-PPC, Inc., priority 1999, dated 2007)",
  "key": {"[1]": {"test_system": "Swiss-Webster mice", "assay": "H1 receptor antagonist (triprolidine) interaction study, locomotor activity in mice", "details": "for effect of triprolidine pretreatment on stimulant or depressant effects: mice pretreated with triprolidine 20 min before the test compound", "experimental": "H1 receptor antagonist interaction studies. […] The mice were immediately placed in the activity testing chamber for a 2-h session. Doses of the test compound were selected from the ascending or descending time of the dose-effect curve determined from the compound-alone studies. Eight mice were tested for each triprolidine/test compound combination.\n(§1) Statistical analysis. Time course data for each compound were considered in 2-way analyses of variance with dose as a between-group and time as a within-group factor. The dose-effect data were considered in 1-way analyses of variance, and planned individual comparisons were conduced between each dose and the saline control group. Interaction studies were considered in 2-way analyses of variance, with Pretreatment and Test dose as the factors."}, "[2]": {"test_system": "Swiss-Webster mice", "assay": "Locomotor stimulant and depressant effects in mice", "details": "i.p.; for Depression Efficacy: ratio of the maximal depressant effect to the maximum possible effect (zero locomotor activity) / Stimulation Efficacy: ratio of the maximal stimulant effect of the test compound to the maximal effect of (+)-amphetamine: locomotor activity", "experimental": "Male Swiss-Webster mice (HSD ND4, Harlan Sprague Dawley, Houston, Tex.) aged 2–3 months were used in these studies. Each dose group consisted of 8 mice. The mice were housed 2 to 4 per cage in 30.4×22.9×15.2 cm clear polycarbonate cages with food and water available ad libitum for at least one week prior to locomotor activity testing. The colony was maintained at 23±1° C., on a normal light-dark cycle beginning at 0700 hr. All testing took place during the light portion of the light-dark cycle.\nHorizontal (forward movement) locomotor activity was measured using a standardized, optical activity monitoring system [Model KXYZCM (16), Omnitech Electronics, Columbus, Ohio]. Activity was monitored in forty 40.5×40.5×30.5 cm clear acrylic chambers that where housed in sets of two within larger sound-attenuating chambers. A panel of 16 infrared beams and corresponding photodetectors were spaced 2 cm apart along the sides and 2.4 cm above the floor of each activity chamber. A 7.5-W incandescent light above each chamber provided dim illumination via a rheostat set to 20% of full scale. Fans provided an 80-dB ambient noise level within the chamber.\nTriprolidine HCl was obtained from Research Biochemicals International, (Natick, Mass.).\nLocomotor stimulant effects. […] (+)-Amphetamine was used as a positive control. The total horizontal distance traversed (cm) was recorded at 10 minute intervals for a 2-hour session. Separate groups of 8 mice were assigned to each dose or saline group, and dose-effect testing continued for each compound until maximal stimulant or depressant effects could be estimated. A separate control group was tested along with each compound.\nUsing TableCurve 2D v2.03 (Jandel Scientific), the mean average total distance traversed (cm/10 min) for that period was fit to a 3-parameter logistic peak function of log10 dose (with the constant set to the mean of the saline group), and the maximum effect estimated from the resulting curve. The […] (dose producing ½ maximal stimulant activity) was estimated from a linear regression against log10 dose of the ascending portion of the dose-effect curve. The stimulant efficacy was the peak effect of the compound (cm/10 min) as estimated from the logistic peak function, minus the mean control distance traveled (cm/10 min), and was expressed for each stimulant compound as a ratio to the stimulant efficacy determined for (+)-amphetamine.\nThe mean average total distance traversed (cm/10 min) for that period were fit to a linear function of log10 dose of the descending portion of the dose-effect curve. […] Efficacy was the ratio of maximal depressant effect to maximum possible depression for each compound (mean average total distance of the control group minus the lowest mean total distance, expressed as a ratio to the control group total distance).\nas §1"}, "[3]": {"target": "T1, β2 adrenergic receptors (Canis lupus familiaris, UniProt P54833)", "T1 construct": "Canine lung membranes (10 μg protein/100 ul) were incubated with ^125ICYP; from tissue; host or cells: mongrel dog lung membranes", "T1 sequence (P54833 whole entry)": "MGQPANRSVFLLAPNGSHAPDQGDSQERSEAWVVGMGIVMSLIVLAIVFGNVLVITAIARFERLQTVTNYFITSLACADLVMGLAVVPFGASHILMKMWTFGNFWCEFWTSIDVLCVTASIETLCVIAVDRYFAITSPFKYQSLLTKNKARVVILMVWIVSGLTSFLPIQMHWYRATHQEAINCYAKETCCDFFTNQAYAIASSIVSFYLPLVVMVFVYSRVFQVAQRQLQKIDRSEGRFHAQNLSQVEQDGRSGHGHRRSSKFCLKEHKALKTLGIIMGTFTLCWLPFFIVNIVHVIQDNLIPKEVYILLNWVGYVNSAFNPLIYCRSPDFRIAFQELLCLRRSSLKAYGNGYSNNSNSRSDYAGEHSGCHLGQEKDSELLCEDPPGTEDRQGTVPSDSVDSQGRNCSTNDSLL", "assay": "Beta-2 binding, 125iodocyanopindolol (ICYP), canine lung membranes", "set-up": "species or system canine (mongrel dogs)", "experimental": "PULMONARY ALPHA-1 AND BETA-2 RECEPTORS: The lungs of mongrel dogs were separated from cartilaginous airways and major blood vessels, weighed, chopped and placed into 10 volumes of ice-cold buffered sucrose (50 mM Tris-HCl pH 7.4, 1 mM EGTA, 0.32M Sucrose). The tissue was then homogenized in a Polytron tissue homogenizer. The homogenate was filtered through two layers of cheesecloth, and the filtrate was dounced three times using a Con-Turque Potter homogenizer. […] The supernatant was recentrifuged at 30,000×g for 30 min at 4° C. and the resulting pellet was washed and resuspended in 10 volumes of Tris buffer (50 mM Tris HCl, pH 7.4, 1 mM EGTA) and incubated at 37° C. for 30 min in a shaking water bath. The suspension was centrifuged at 4° C. at 30,000×g for 30 min and the resulting pellet washed in 10 volumes of Tris buffer. […] Protein concentration was then determined by the Lowry method and the final suspension was adjusted to 10 mg of protein/ml, aliquoted and stored at […].\nParticulates were also prepared for β2 receptors using the identical procedure except the final protein concentration was adjusted to 0.1 mg/ml.\n(§2) ALPHA-2 BINDING ^125IODOCLONIDINE. […] Nonspecific binding was determined in separate incubations in the presence of 10 μM phentolamine. The final concentration of p-iodoclonidine was 44–45 pM in competition studies and between 50 pM and 10 nM in saturation experiments. Bound and free p-^125iodoclonidine were separated and the bound quantified as described above for the ICYP assays. […] BETA-2 BINDING, ^125IODOCYANOPINDOLOL (^125ICYP). […] Nonspecific binding was determined in separate incubations in the presence of 2 μM d,l-propranolol. Each experimental point was determined in triplicate. […] Incubations were terminated as described above for the α1 assays. Filters were placed into polyethylene tubes and the bound ligand was determined by gamma spectrometry (Sano et al., 1993).\n(§3) All data were analyzed with the aid of microcomputer nonlinear curve fitting programs (PRISM 2.0, Graphpad Software, San Diego Calif.).\n(§4) The receptors resident in each of the three membrane preparations were evaluated by standard saturation analysis following the addition of increasing concentrations of the appropriate radioligand. […] The radio ligand added for subsequent α2-displacement assays was adjusted to evaluate only the high affinity receptor. Contributions from p-iodoclonidine binding to imidazoline receptors in the α2-displacement assay were evaluated with epinephrine.\n(§5) The variable, I, is the concentration of tracer added and the variable, Kd, is the equilibrium dissociation constant empirically determined for this receptor population."}, "[4]": {"target": "α2 adrenergic receptors", "assay": "Alpha-2 binding, 125iodoclonidine, canine brain (frontal cortex) membranes", "set-up": "species or system canine (mongrel dogs)", "details": "canine cerebral cortex membranes", "experimental": "BRAIN ALPHA-2 RECEPTORS: Membranes of mongrel dogs were harvested from the canine frontal cortex and prepared as described for lung except that the final membrane protein concentration was adjusted to 0.5 mg/ml.\nas §2, §3, §4, §5"}, "[5]": {"details": "— denotes absence of significant effect"}},
  "note": "Structures can show the parent of a compound that is named as a salt. Where two headings read alike, the source gives them in different places.",
  "data": [
    {"smiles": "C[C@H](N)[C@H](O)c1cccc(O)c1", "note": "(relative stereo) [R-(R*,S*) metaraminol]", "values": [
      {"measurement": "effect of triprolidine pretreatment on stimulant or depressant effects", "setting": "[1]", "result": "failed to show significant modification of stimulant or depressant effects"},
      {"measurement": "Depression Time: 30-min period following injection in which the maximal depression occurred", "setting": "[2]", "result": "30 to 60", "unit": "min"},
      {"measurement": "Stimulation Time: 30-min period following injection in which the maximal stimulant effect occurred", "setting": "[2]", "result": "90 to 120", "unit": "min"},
      {"measurement": "locomotor depressant effects, time course (result in words)", "setting": "[2]", "result": "dose-dependent locomotor depression within 10 to 20 minutes following injection"},
      {"measurement": "Depression Efficacy: ratio of the maximal depressant effect to the maximum possible effect (zero locomotor activity)", "setting": "[2]", "result": 0.87},
      {"measurement": "Stimulation Efficacy: ratio of the maximal stimulant effect of the test compound to the maximal effect of (+)-amphetamine", "setting": "[2]", "result": 0},
      {"measurement": "Depression Potency: dose resulting in ½ the maximal depressant effect (ID50)", "setting": "[2]; [5]", "result": 4.3, "unit": "mg/kg"}
    ]},
    {"smiles": "Cc1ccc(/C(=C\\CN2CCCC2)c2ccccn2)cc1", "note": "[triprolidine, Triprolidine HCl]", "values": [
      {"measurement": "effect on horizontal distance, triprolidine alone", "setting": "[1]; 0.25 to 25 mg/kg, 2-hour test period", "result": "failed to affect horizontal distance"},
      {"measurement": "effect on locomotion, triprolidine alone", "setting": "[1]; 50 and 100 mg/kg", "result": "Dose-dependent depression of locomotion"}
    ]},
    {"smiles": "CC(C)(C)NCC(O)COc1cccc2[nH]c(C#N)c(I)c12", "note": "(stereo not drawn) [ICYP, iodocyanopindolol]", "values": [
      {"measurement": "Kd", "setting": "[3]; Saturation Analysis, Run 1", "result": 9.6, "unit": "pM"},
      {"measurement": "Kd", "setting": "[3]; Saturation Analysis, Run 2", "result": 9.3, "unit": "pM"},
      {"measurement": "Kd", "setting": "[3]; Saturation Analysis, Summary", "result": 9.5, "unit": "pM"},
      {"measurement": "Kd", "setting": "[3]; Scatchard Analysis, Run 1", "result": 9.9, "unit": "pM"},
      {"measurement": "Kd", "setting": "[3]; Scatchard Analysis, Run 2", "result": 7.8, "unit": "pM"},
      {"measurement": "Kd", "setting": "[3]; Scatchard Analysis, Summary", "result": 8.9, "unit": "pM"}
    ]},
    {"smiles": "Clc1cc(I)cc(Cl)c1NC1=NCCN1", "note": "[p-iodoclonidine]", "values": [
      {"measurement": "Kd", "setting": "[4]; Saturation Analysis, read-out: Kd1 (high affinity)", "result": 150, "unit": "pM"},
      {"measurement": "Kd", "setting": "[4]; Saturation Analysis, read-out: Kd2 (low affinity)", "result": 3010, "unit": "pM"},
      {"measurement": "Kd", "setting": "[4]; Scatchard Analysis, read-out: Kd1 (high affinity)", "result": 150, "unit": "pM"},
      {"measurement": "Kd", "setting": "[4]; Scatchard Analysis, read-out: Kd2 (low affinity)", "result": 870, "unit": "pM"}
    ]},
    {"smiles": "CNC(C)(C)Cc1ccccc1", "note": "[mephentermine]", "values": [
      {"measurement": "effect of triprolidine pretreatment on stimulant or depressant effects", "setting": "[1]", "result": "failed to show significant modification of stimulant or depressant effects"},
      {"measurement": "Depression Time: 30-min period following injection in which the maximal depression occurred", "setting": "[2]", "result": "0 to 30", "unit": "min"},
      {"measurement": "Stimulation Time: 30-min period following injection in which the maximal stimulant effect occurred", "setting": "[2]", "result": "20 to 50", "unit": "min"},
      {"measurement": "locomotor stimulant effects, time course (result in words)", "setting": "[2]", "result": "increased locomotion following from 5 to 25 mg/kg, with effects occurring within 20 minutes and lasting for up to 80 minutes"},
      {"measurement": "time of peak stimulant effects following injection", "setting": "[2]", "result": "20 to 50", "unit": "min"},
      {"measurement": "Depression Efficacy: ratio of the maximal depressant effect to the maximum possible effect (zero locomotor activity)", "setting": "[2]", "result": 0},
      {"measurement": "Stimulation Efficacy: ratio of the maximal stimulant effect of the test compound to the maximal effect of (+)-amphetamine", "setting": "[2]", "result": 1.25},
      {"measurement": "Stimulation Potency: dose resulting in ½ the maximal stimulant effect (ID50)", "setting": "[2]; [5]", "result": 5.6, "unit": "mg/kg"}
    ]}
  ]
}
